Data taken from article PMC11505029, “Isatin Bis-Imidathiazole Hybrids Identified as FtsZ Inhibitors with On-Target Activity Against Staphylococcus aureus” (Antibiotics, 2024).
Like-named read-outs stand apart in the source and are kept apart here.

Tests used:
S. aureus ATCC 25923 = assay: broth microdilution antimicrobial activity, S. aureus reference strain; type: cell-based, Staphylococcus aureus; conditions: for IC50 / activity at 100 µM: Staphylococcus aureus; for IC50: ATCC25923, S. aureus ATCC 25923, mean [95% confidence interval]
Method: (§1) Reference bacterial strains of Staphylococcus aureus (ATCC 25923), Escherichia coli (ATCC 25922), and Candida albicans (ATCC 10231) were used in this study as Gram-positive, Gram-negative, and fungal models, respectively. These reference strains were purchased from the American Type Culture Collection (ATCC, Manassas, VA, USA); bacterial cultures were routinely grown at 37 °C on 5% blood agar plate, while fungal cultures on Sabouraud Dextrose Agar (Biolife Italiana S.r.l., Milan, Italy).
(§2) The dry powder of the isatin derivatives was resuspended in dimethylsulfoxide (DMSO) at 20 mM and used as stock solutions. For biological investigations, compounds were used in the range 100–0.78 µM, and the solvent in the corresponding percentage range.
(§3) The antimicrobial activity of the compounds was assessed by a well-established broth microdilution procedure in microtiter plates and in compliance with the Clinical and laboratory Standard Institute (CLSI) guidelines (Clinical and Laboratory Standards Institute, Wayne, PA, USA). In short, microbial inocula were prepared at 0.5 McFarland in PBS and, subsequently, bacterial suspensions were diluted 1:200 in Mueller–Hinton broth (Sigma-Aldrich, St. Louis, MO, USA), while fungal inoculum was diluted 1:20 in RPMI-1640 medium (Gibco®, ThermoFisher Scientific Inc., Waltham, MA, USA), containing 2% glucose and 0.3% levo-glutamine buffered to pH 7.0 with 0.165 M 3-(N-morpholino)propanesulfonic acid (MOPS). A total of 100 µL of these microbial suspensions were introduced in a 96-well microplate and incubated with 100 µL of the compounds, two-fold serially diluted in the range of 100–0.19 µM. Positive controls (microbial suspensions in regular media), negative controls (only compounds), and solvent controls (microbial suspensions incubated with DMSO dilutions) were included in the tests. The plate was incubated at 37 °C for 24 h, and subsequently, the optical density at 630 nm (OD630nm) was spectrophotometrically measured. Each experiment was carried out with three technical replicates (i.e., three wells per sample) and repeated at least two times for statistical power. […] IC50 values, corresponding to the concentration of the compound giving rise to an inhibition of growth of 50%, were obtained by interpolation on dose–response curves generated by plotting the percentages of growth inhibition, relative to the positive control (set to 100% of growth), as a function of the tested concentrations (on a logarithm scale). Statistical analysis was carried out using GraphPad Prism version 9.4.1 for Windows (GraphPad Software, San Diego, CA, USA, www.graphpad.com).

E. coli ATCC 25922 = assay: broth microdilution antimicrobial activity, E. coli reference strain; type: cell-based, Escherichia coli; conditions: Escherichia coli
Method: as §1, §2, §3

C. albicans ATCC 10231 = assay: broth microdilution antimicrobial activity, C. albicans reference strain; type: cell-based, Candida albicans; conditions: Candida albicans
Method: as §1, §2, §3

[1] = tested on: Vero cell line (ATCC CCL-81); assay: cell viability and proliferation assay (WST8/CCK-8); type: cell-based; conditions: for viability at 100 µM: Chlorocebus sabaeus, Vero, 48 h, read-out: Cell proliferation, Vero
Method: (§4) Vero cell line (ATCC CCL-81) was selected as the model system to assess the effect of the isatin hybrids on normal epithelial cells, and a previously established protocol was used with minor modifications. Briefly, cells were cultured in RPMI-1640 medium supplemented with 10% fetal bovine serum (FBS) (Carlo Erba Reagents, Milan, Italy), 100 U/mL penicillin, and 100 µg/mL streptomycin at 37 °C with 5% CO2. For experiments, cells were seeded into 96-well plates at 10^4 cells/well, and incubated at 37 °C for 24 h. Following washes with PBS, the cell monolayer was incubated with 100 µL of medium containing the 2-fold serial dilutions of the compounds. Both untreated cells and cells incubated with medium containing solvent dilutions were included in each experiment as controls. The cell viability was assessed by a WST8-based assay according to the manufacturer’s instructions (CCK-8, Cell Counting Kit-8, Dojindo Molecular Technologies, Rockville, MD, USA). After 48 h of incubation, culture medium was removed from each well, the monolayer was washed with PBS, and 100 µL of fresh medium containing 10 µL of CCK-8 solution were added. After 2 h at 37 °C, the OD450nm was read, and data were expressed as the percentage of the cell viability relative to the untreated controls. The CC50 was obtained from the corresponding dose–response curves generated, as previously reported for IC50 values.

[2] = as above; type: cell-based; conditions: African green monkey, Vero cells (ATCC CCL-81); Vero cells; mean [95% confidence interval]
Method: as §4

[3] = ATCC25923, 100 μM, growth relative to positive control, mean ± SD, read-out: Microbial growth, S. aureus
[4] = ATCC25922, 100 μM, growth relative to positive control, mean ± SD, read-out: Microbial growth, E. coli
[5] = ATCC10231, 100 μM, growth relative to positive control, mean ± SD, read-out: Microbial growth, C. albicans
[6] = 100 μM, viability relative to untreated controls, mean ± SD
[7] = ATCC25923, read-out: Microbial growth, S. aureus
[8] = ATCC25922, read-out: Microbial growth, E. coli
[9] = ATCC10231, read-out: Microbial growth, C. albicans

SMILES	activity at 100 µM (S. aureus ATCC 25923; [3]) [%]	activity at 100 µM (E. coli ATCC 25922; [4]) [%]	activity at 100 µM (C. albicans ATCC 10231; [5]) [%]	viability at 100 µM [1, 6] [%]	other results
CC1(C)S[C@@H]2[C@H](NC(=O)[C@H](N)c3ccccc3)C(=O)N2[C@H]1C(=O)O [AMP, ampicillin, reference compound]	–	–	–	–	IC50 (S. aureus ATCC 25923): 2.56 µM
COc1ccc2c(c1)C(c1c(Cl)nc3sc(C)cn13)(c1c(Cl)nc3sc(C)cn13)C(=O)N2 [Compound 3, 3,3-bis(6-Chloro-2-methylimidazo[2,1-b]thiazol-5-yl)-5-methoxyindolin-2-one]	104 ± 8.5	97 ± 1.8	101 ± 3.6	90.3 ± 4.2	–
Cc1cn2c(C3(c4c(Cl)nc5sc(C)cn45)C(=O)N(Cc4ccc(Cl)cc4)c4ccccc43)c(Cl)nc2s1 [Compound 4, 3,3-bis(6-Chloro-2-methylimidazo[2,1-b]thiazol-5-yl)-1-(4-chlorobenzyl)indolin-2-one]	98.7 ± 0.8	99 ± 2.9	125 ± 6.3	116 ± 4	–
O=C1Nc2ccc(F)cc2C1(c1c(Cl)nc2sccn12)c1c(Cl)nc2sccn12 [Compound 5, 3,3-bis(6-Chloroimidazo[2,1-b]thiazol-5-yl)-5-fluoroindolin-2-one]	< 30	98.9 ± 1.4	102 ± 1.5	43.5 ± 3.3	SI (selectivity index, CC50/IC50) (S. aureus ATCC 25923; CC50 Vero / IC50 S. aureus): 1.5; IC50 (S. aureus ATCC 25923): 75.6 µM; CC50 at 48 h [2]: 116 µM
Cc1cn2c(C3(c4c(Cl)nc5sc(C)cn45)C(=O)Nc4ccc(F)cc43)c(Cl)nc2s1 [Compound 6, 3,3-bis(6-Chloro-2-methylimidazo[2,1-b]thiazol-5-yl)-5-fluoroindolin-2-one]	101 ± 10.1	98.7 ± 0.9	101 ± 1.9	38.2 ± 1.5	–
O=C1Nc2cc(F)ccc2C1(c1c(Cl)nc2sccn12)c1c(Cl)nc2sccn12 [Compound 7, 3,3-bis(6-Chloroimidazo[2,1-b]thiazol-5-yl)-6-fluoroindolin-2-one]	76.9 ± 1.5	106 ± 2.1	81.1 ± 0.7	88.2 ± 1.9	–
Cc1cn2c(C3(c4c(Cl)nc5sc(C)cn45)C(=O)Nc4cc(F)ccc43)c(Cl)nc2s1 [Compound 8, 3,3-bis(6-Chloro-2-methylimidazo[2,1-b]thiazol-5-yl)-6-fluoroindolin-2-one]	97.9 ± 2.8	99.8 ± 2.6	64.2 ± 4.3	75.2 ± 2.5	–
O=C1Nc2cc(I)ccc2C1(c1c(Cl)nc2sccn12)c1c(Cl)nc2sccn12 [Compound 9, 3,3-bis(6-Chloroimidazo[2,1-b]thiazol-5-yl)-6-iodoindolin-2-one]	80.2 ± 2.6	98.3 ± 2.5	63.7 ± 1.2	98.2 ± 1.5	–
Cc1cn2c(C3(c4c(Cl)nc5sc(C)cn45)C(=O)Nc4cc(I)ccc43)c(Cl)nc2s1 [Compound 10, 3,3-bis(6-Chloro-2-methylimidazo[2,1-b]thiazol-5-yl)-6-iodoindolin-2-one]	87.7 ± 2.5	94.3 ± 2.7	59.6 ± 0.4	78.8 ± 5.5	–
Cc1cn2c(C3(c4c(Cl)nc5sc(C)cn45)C(=O)Nc4cc(OC(F)(F)F)ccc43)c(Cl)nc2s1 [Compound 12, 3,3-bis(6-Chloro-2-methylimidazo[2,1-b]thiazol-5-yl)-6-(trifluoromethoxy)indolin-2-one]	110 ± 12.8	96.6 ± 1	118.1 ± 0.2	56.1 ± 1.1	–
O=C1N(Cc2ccccc2)c2ccccc2C1(c1c(Cl)nc2sccn12)c1c(Cl)nc2sccn12 [Compound 13, 1-Benzyl-3,3-bis(6-chloroimidazo[2,1-b]thiazol-5-yl)indolin-2-one]	92 ± 4	96.2 ± 4	113.7 ± 0.7	56.8 ± 0.1	Cell proliferation, Vero [1, 6]: less active
Cc1cn2c(C3(c4c(Cl)nc5sc(C)cn45)C(=O)N(Cc4ccccc4)c4ccccc43)c(Cl)nc2s1 [Compound 14, 1-Benzyl-3,3-bis(6-chloro-2-methylimidazo[2,1-b]thiazol-5-yl)indolin-2-one]	107 ± 3.9	99 ± 0.4	116 ± 1.2	104 ± 1.9	–
O=C1N(CC=Cc2ccccc2)c2ccccc2C1(c1c(Cl)nc2sccn12)c1c(Cl)nc2sccn12 [Compound 15, 3,3-bis(6-Chloroimidazo[2,1-b]thiazol-5-yl)-1-cinnamylindolin-2-one]	< 30	69.5 ± 1.8	60.7 ± 1.7	101 ± 1.5	IC50 (S. aureus ATCC 25923): 90.1 µM; CC50 at 48 h [2]: > 100 µM
Cc1cn2c(C3(c4c(Cl)nc5sc(C)cn45)C(=O)N(CC=Cc4ccccc4)c4ccccc43)c(Cl)nc2s1 [Compound 16, 3,3-bis(6-Chloro-2-methylimidazo[2,1-b]thiazol-5-yl)-1-cinnamylindolin-2-one]	69.1 ± 4.3	69.2 ± 0.9	60.3 ± 1.1	93.3 ± 1.9	–
O=C1Nc2cccc(C(F)(F)F)c2C1(O)c1c(Cl)nc2sccn12 (centres unmarked) [Compound 17, 3-(6-Chloroimidazo[2,1-b]thiazol-5-yl)-3-hydroxy-4-(trifluoromethyl)indolin-2-one]	–	–	–	–	activity at 100 µM (S. aureus ATCC 25923; [7]): 149 ± 3.8%; activity at 100 µM (E. coli ATCC 25922; [8]): 104 ± 1.6%; activity at 100 µM (C. albicans ATCC 10231; [9]): 132 ± 3.9%; viability at 100 µM [1]: 103.1 ± 1%
Cc1cn2c(C3(O)C(=O)Nc4cccc(C(F)(F)F)c43)c(Cl)nc2s1 (centres unmarked) [Compound 18, 3-(6-Chloro-2-methylimidazo[2,1-b]thiazol-5-yl)-3-hydroxy-4-(trifluoromethyl)indolin-2-one]	–	–	–	–	activity at 100 µM (S. aureus ATCC 25923; [7]): 101 ± 3.1%; activity at 100 µM (E. coli ATCC 25922; [8]): 109 ± 3.5%; activity at 100 µM (C. albicans ATCC 10231; [9]): 97.1 ± 0.9%; viability at 100 µM [1]: 93.1 ± 2.9%
O=C1Nc2cccc(I)c2C1(O)c1c(Cl)nc2sccn12 (centres unmarked) [Compound 19, 3-(6-Chloroimidazo[2,1-b]thiazol-5-yl)-3-hydroxy-4-iodoindolin-2-one]	–	–	–	–	activity at 100 µM (S. aureus ATCC 25923; [7]): 148 ± 4.8%; activity at 100 µM (E. coli ATCC 25922; [8]): 95.2 ± 2.6%; activity at 100 µM (C. albicans ATCC 10231; [9]): 131 ± 7.5%; viability at 100 µM [1]: 98.9 ± 2.6%
Cc1cn2c(C3(O)C(=O)Nc4cccc(I)c43)c(Cl)nc2s1 (centres unmarked) [Compound 20, 3-(6-Chloro-2-methylimidazo[2,1-b]thiazol-5-yl)-3-hydroxy-4-iodoindolin-2-one]	–	–	–	–	activity at 100 µM (S. aureus ATCC 25923; [7]): 104 ± 4%; activity at 100 µM (E. coli ATCC 25922; [8]): 98 ± 1.3%; activity at 100 µM (C. albicans ATCC 10231; [9]): 108 ± 2.7%; viability at 100 µM [1]: 101 ± 2.4%
COc1cccc2c1C(=O)c1c(O)c3c(c(O)c1C2=O)C[C@@](O)(C(=O)CO)C[C@@H]3O[C@H]1C[C@H](N)[C@H](O)[C@H](C)O1 [DOX, doxorubicin, reference compound]	–	–	–	–	CC50 at 48 h [2]: 70.6 µM
CNC(C)C1CCC(N)C(OC2C(N)CC(N)C(OC3OCC(C)(O)C(NC)C3O)C2O)O1 (centres unmarked) [GMN, gentamicin, reference compound]	–	–	–	–	IC50 (S. aureus ATCC 25923): 4 µM
